# Experiments:
# A549 cells [1] = experiment: Cytokine induction of IL-33R mRNA in A549 cells; type: cell-based, human; conditions: cytokine treatment for 72 hours
# Experimental: (§1) FIGS. 18A-18J show the role of IL-33 in the persistence of asthma. FIG. 18A, A549 cells were cultured in medium alone or with IL-33 ([…]), IL-1b (2 ng/mL), IL-4 (10 ng/mL), IL-13 (20 ng/mL), IL-17 (10 ng/mL), TNF (2 ng/mL), IFN-γ (10 ng/mL), or IFN-γ plus TNF (same concentrations) for 72 hours, and then mRNA was analyzed for IL-33 normalized to glyceraldehyde-3-phosphate dehydrogenase (GAPDH). *P<0.05 and **P<0.01. There were 4 to 8 mice per group. FIGS. 18B-18E show the direct effect of IL-33 on airway hyperreactivity, lung ILCs, and autoinduction. […] IN, Intranasal. […] The change in RL with the 25-mg dose of methacholine is shown (n=5 per group). *P<0.05.
# (§2) Immediately after flexiVent analysis, lung sections were collected in RIPA buffer (50 mmol/L Tris [pH 7.4], 150 mmol/L NaCl, 1 mmol/L EDTA, 1 mmol/L NaF, 1 mmol/L Na3VO4, and 0.1 mmol/L phenylmethylsulfonyl fluoride) containing protease and phosphatase inhibitors and homogenized. […] Cellular RNA was analyzed for mRNA for IL-33 and IL-33R. […] Cellular RNAwas analyzed for mRNA for IL-33. […] Cellular RNA was analyzed for mRNA for IL-33. In a fourth experiment cells were treated for 24 hours with IL-13 (20 ng/mL) and ATP, and the supernatant was collected and analyzed for IL-33 levels by means of ELISA, according to the manufacturer's instructions (R&D systems). […]
# A549 cells [2] = experiment: IL-33 secretion by A549 cells (ELISA); type: cell-based, human; conditions: IL-13 20 ng/mL and ATP, overnight
# Experimental: FIG. 27A, Effect of IL-13 on IL-33 secretion. A549 cells were treated overnight with medium or IL-13 (20 ng/mL) and ATP ([…]), and the released IL-33 was measured by using ELISA (n=6). *P=0.04. FIGS. 27B-27E, Direct effect of IL-33 on airway hyperreactivity and lung ILCs. C57Bl/6 mice were treated intranasally for 3 consecutive days with 400 ng per dose of IL-33. Outcome measures were evaluated 15 days after final exposure.
# Immediately after flexiVent analysis, lung sections were collected in RIPA buffer (50 mmol/L Tris [pH 7.4], 150 mmol/L NaCl, 1 mmol/L EDTA, 1 mmol/L NaF, 1 mmol/L Na3VO4, and 0.1 mmol/L phenylmethylsulfonyl fluoride) containing protease and phosphatase inhibitors and homogenized. Lysed samples were subjected to 10% SDS-PAGE, transferred to a polyvinylidene difluoride membrane, and then immunoblotted with primary antibodies (IL-33 [R&D Systems], tubulin [H-235], and b-actin [Santa Cruz Biotechnology, Dallas, Tex]). […] Cellular RNA was analyzed for mRNA for IL-33 and IL-33R. […] Cellular RNAwas analyzed for mRNA for IL-33. […] Cellular RNA was analyzed for mRNA for IL-33. In a fourth experiment cells were treated for 24 hours with IL-13 (20 ng/mL) and ATP, and the supernatant was collected and analyzed for IL-33 levels by means of ELISA, according to the manufacturer's instructions (R&D systems).
# A549 cells [3] = experiment: IL-33 autoinduction in A549 cells after cytokine pretreatment; type: cell-based, human; conditions: pretreated 24 hours with cytokine, then 72 hours with IL-33 (20 ng/mL)
# Experimental: as §1, §2
# [4] = test system: human lung epithelial cell line A549; experiment: IL-33 mRNA induction in A549 cells (real-time PCR); type: cell-based; conditions: cytokine treatment for 72 hours, normalized to GAPDH
# Experimental: as §1
# Immediately after flexiVent analysis, lung sections were collected in RIPA buffer (50 mmol/L Tris [pH 7.4], 150 mmol/L NaCl, 1 mmol/L EDTA, 1 mmol/L NaF, 1 mmol/L Na3VO4, and 0.1 mmol/L phenylmethylsulfonyl fluoride) containing protease and phosphatase inhibitors and homogenized. Lysed samples were subjected to 10% SDS-PAGE, transferred to a polyvinylidene difluoride membrane, and then immunoblotted with primary antibodies (IL-33 [R&D Systems], tubulin [H-235], and b-actin [Santa Cruz Biotechnology, Dallas, Tex]). After washing, the membranes were incubated with a horseradish peroxidase-conjugated secondary antibody. After additional washing, the membranes were developed with ECL reagent, as previously described (Gorska et al. 2007). A549 cell culture A549 cells were cultured in RPMI in 10% FBS (HyClone; Thermo Scientific, Waltham, Mass.) and 1% penicillin/streptomycin (Gibco, Carlsbad, Calif.) and maintained at 378C in a humidified 5% CO2 incubator. All cytokines were purchased from PeproTech (Rocky Hill, N.J.). In one experiment cells were treated with medium, IL-1b (2 ng/mL), IL-4 (10 ng/mL), IL-13 (20 ng/mL), IL-17 (10 ng/mL), IL-33 (20 ng/mL), TNF (2 ng/mL), IFN-g (10 ng/mL), and TNF (2 ng/mL) plus IFN-g (10 ng/mL) for 72 hours. Cellular RNA was analyzed for mRNA for IL-33 and IL-33R. In a second experiment cells were pretreated for 24 hours with medium, IL-1b (2 ng/mL), IL-4 (10 ng/mL), IL-13 (20 ng/mL), IL-17 (10 ng/mL), TNF (2 ng/mL), or IFN-g (10 ng/mL) before stimulation for 72 hours with IL-33 (20 ng/mL). Cellular RNAwas analyzed for mRNA for IL-33. In a third experiment cells were treated for 24 hours with DRA (5 μg/mL dust mite, 15 μg/mL ragweed, and 5 μg/mL Aspergillus species). Cellular RNA was analyzed for mRNA for IL-33. In a fourth experiment cells were treated for 24 hours with IL-13 (20 ng/mL) and ATP, and the supernatant was collected and analyzed for IL-33 levels by means of ELISA, according to the manufacturer's instructions (R&D systems). […]
substance,measurement,setting,value
"IL-13: cytokine purchased from PeproTech, 20 ng/mL on A549 cells",induction of IL-33R mRNA,A549 cells [1],strongly induced IL-33R
same,secretion of IL-33,A549 cells [2],stimulated secretion of IL-33
same,IL-33 autoinduction after preincubation with cytokine,A549 cells [3],synergistically enhanced IL-33 autoinduction
same,induction of IL-33 mRNA,[4],most potent inducer of IL-33 mRNA

# Reference: US20190041401A1, “Methods of Treating Subjects having Severe and/or Persistent Asthma” (National Jewish Health, priority 2015, published 2019)
